Measurements reported in patent US11040038B2, “Methods for treating diseases associated with abnormal ACVR1 expression and ACVR1 inhibitors for use in the same” (Sumitomo Dainippon Pharma Oncology, Inc., priority 2018, dated 2021).
Where “and” joins values, the source holds several entries; their conditions need not be identical. Equal values may be shown once. Read-outs that look alike come from different tables or passages of the source.

What was measured:
[1] = tested on: SMAD1/5 phosphorylation in BMP2 stimulated HepG2 cells; assay: Inhibition of SMAD1/5 phosphorylation in BMP2 stimulated HepG2 cells; assay type: cell-based; settings: Homo sapiens; HepG2 cells stimulated with BMP2
Source text: SMAD proteins are transcription factors involved in signaling downstream of TGFβ receptors. The TGFβ receptor ALK2 phosphorylates SMADs when activated by bone morphogenic proteins such as BMP2, which leads to SMAD nuclear translocation, transcriptional initiation and increased expression of genes like HAMP which codes for the peptide hormone hepcidin. Therefore, compounds that target ALK2 should inhibit BMP induced SMAD phosphorylation. In order to evaluate the in vitro potency of Compound 2, HepG2 cells were stimulated with the ALK2 ligand BMP2 in the presence or absence of various concentrations of Compound 2.

[2] = Pharmacokinetics and relative bioavailability after a single oral dose (two liquid formulations, powder in capsule); assay type: in vivo, male Beagle dogs
Source text: The purpose of the study is to dose two suspension formulations of Compound 2 at two dose levels by gavage to Beagle dogs and to collect blood samples for the determination of plasma concentrations, derivation of pharmacokinetic parameters and to determine the relative bioavailability of the two suspension formulations. The pharmacokinetics of Compound 2 would be evaluated following oral administration in capsules and the relative bioavailability of this dosage form to the oral liquid formulations was determined.
This study involves the dosing of the test item by the oral route over three periods separated by a 7 days washout period as outlined in Table 43, Table 44, and Table 45. The third period of the study outlined in Table 45 is considered to be optional and will only be performed at the Sponsor's request. Prior to the day of dosing, food will be removed from the dogs at 4:00 pm and reintroduced 2 hrs after dosing.
For oral administration of the formulations, the test item was administered via a stomach tube followed by the administration of 10 mL of tap water. For oral administration of capsules, the capsule was placed on the back of the tongue to encourage swallowing followed by administration of 10 mL of tap water. The oral cavity was then be inspected to make sure the capsule was swallowed. The actual volume of dosing formulation administered will be calculated based on the animal's most recently scheduled body weight.
The pharmacokinetic parameters for Compound 2 in solution as Formulation #1 (Table 43) and Formulation #2 (Table 44) along with data for the dosing of Compound 2 powder in capsule (Table 45) are presented in Table 46.

[3] = Formulation #1 (Table 43), 2 mg/kg oral, male Beagle dogs, plasma, Mean
[4] = Formulation #1 (Table 43), 2 mg/kg oral, male Beagle dogs, plasma, individual dog, 2 mg/kg
[5] = Formulation #1 (Table 43), 5 mg/kg oral, male Beagle dogs, plasma, Mean
[6] = Formulation #1 (Table 43), 5 mg/kg oral, male Beagle dogs, plasma, individual dog, 5 mg/kg
[7] = Formulation #2 (Table 44), 2 mg/kg oral, male Beagle dogs, plasma, Mean
[8] = Formulation #2 (Table 44), 2 mg/kg oral, male Beagle dogs, plasma, individual dog, 2 mg/kg
[9] = Formulation #2 (Table 44), 5 mg/kg oral, male Beagle dogs, plasma, Mean
[10] = Formulation #2 (Table 44), 5 mg/kg oral, male Beagle dogs, plasma, individual dog, 5 mg/kg
[11] = Powder in Capsule (Table 45), 2 mg/kg oral, male Beagle dogs, plasma, Mean
[12] = Powder in Capsule (Table 45), 2 mg/kg oral, male Beagle dogs, plasma, individual dog, 2 mg/kg
[13] = Powder in Capsule (Table 45), 5 mg/kg oral, male Beagle dogs, plasma, Mean
[14] = Powder in Capsule (Table 45), 5 mg/kg oral, male Beagle dogs, plasma, individual dog, 5 mg/kg
[15] = male, Beagle, dog, plasma, po, 2 mg/kg, Formulation #1 (Table 43), 2 mg/kg oral, male Beagle dogs, Mean

Compound: COc1cc(Nc2nccc(Nc3cccnc3-c3ccccn3)n2)ccc1N1CCN(C)CC1 [Compound 2, N^4-(2,2′-bipyridin-3-yl)-N^2-(3-methoxy-4-(4-methylpiperazin-1-yl)phenyl)pyrimidine-2,4-diamine]
- EC50 [1]: 162 nM
- Kel [2, 3]: 0.124 h⁻¹
- MRTobs [2, 3]: 9.32 h
- AUC0-TLast [2, 4]: 87 ng·h/mL and 77 ng·h/mL
- AUC0-∞ [2, 4]: 92 ng·h/mL and 82 ng·h/mL
- CL/F [2, 4]: 367 mL/min/kg and 400 mL/min/kg
- Cmax [2, 4]: 8.69 ng/mL and 7.27 ng/mL
- Kel [2, 4]: 0.116 h⁻¹ and 0.133 h⁻¹ and 0.124 h⁻¹
- MRTobs [2, 4]: 10.05 h and 8.64 h and 9.26 h
- t1/2 [2, 4]: 5.2 h
- Kel [2, 5]: 0.138 h⁻¹
- MRTobs [2, 5]: 8.71 h
- AUC0-TLast [2, 6]: 190 ng·h/mL and 453 ng·h/mL and 198 ng·h/mL
- AUC0-∞ [2, 6]: 204 ng·h/mL and 475 ng·h/mL
- CL/F [2, 6]: 417 mL/min/kg and 183 mL/min/kg
- Cmax [2, 6]: 15.51 ng/mL and 46.76 ng/mL and 21.15 ng/mL
- Kel [2, 6]: 0.115 h⁻¹ and 0.136 h⁻¹ and 0.162 h⁻¹
- MRTobs [2, 6]: 9.72 h and 8.6 h and 7.82 h
- t1/2 [2, 6]: 5.1 h and 4.3 h
- Kel [2, 7]: 0.150 h⁻¹
- MRTobs [2, 7]: 8.49 h
- AUC0-TLast [2, 8]: 115 ng·h/mL and 44 ng·h/mL
- AUC0-∞ [2, 8]: 148 ng·h/mL and 120 ng·h/mL and 47 ng·h/mL
- CL/F [2, 8]: 217 mL/min/kg and 283 mL/min/kg and 717 mL/min/kg
- Cmax [2, 8]: 19.72 ng/mL and 10.43 ng/mL and 4.59 ng/mL
- Kel [2, 8]: 0.179 h⁻¹ and 0.145 h⁻¹ and 0.125 h⁻¹
- MRTobs [2, 8]: 7.31 h and 9.2 h and 8.96 h
- t1/2 [2, 8]: 4.8 h and 5.5 h
- Kel [2, 9]: 0.142 h⁻¹
- MRTobs [2, 9]: 8.28 h
- AUC0-TLast [2, 10]: 151 ng·h/mL and 342 ng·h/mL and 141 ng·h/mL
- AUC0-∞ [2, 10]: 159 ng·h/mL and 357 ng·h/mL and 146 ng·h/mL
- CL/F [2, 10]: 517 mL/min/kg and 233 mL/min/kg and 567 mL/min/kg
- Cmax [2, 10]: 17.70 ng/mL and 34.08 ng/mL and 14.91 ng/mL
- Kel [2, 10]: 0.129 h⁻¹ and 0.142 h⁻¹ and 0.153 h⁻¹
- MRTobs [2, 10]: 8.44 h and 8.7 h and 7.71 h
- t1/2 [2, 10]: 4.9 h and 4.5 h
- Kel [2, 11]: 0.304 h⁻¹
- MRTobs [2, 11]: 5.23 h
- AUC0-TLast [2, 12]: 53 ng·h/mL and 49 ng·h/mL and 112 ng·h/mL
- AUC0-∞ [2, 12]: 58 ng·h/mL and 122 ng·h/mL
- CL/F [2, 12]: 583 mL/min/kg and 267 mL/min/kg
- Cmax [2, 12]: 9.55 ng/mL and 13.83 ng/mL and 21.31 ng/mL
- Kel [2, 12]: 0.293 h⁻¹ and 0.314 h⁻¹
- MRTobs [2, 12]: 5.15 h and 5.30 h
- t1/2 [2, 12]: 2.2 h
- Kel [2, 13]: 0.233 h⁻¹
- MRTobs [2, 13]: 6.44 h
- AUC0-TLast [2, 14]: 139 ng·h/mL and 107 ng·h/mL
- AUC0-∞ [2, 14]: 142 ng·h/mL and 122 ng·h/mL
- CL/F [2, 14]: 583 mL/min/kg and 683 mL/min/kg
- Cmax [2, 14]: 43.79 ng/mL and 14.66 ng/mL and 18.21 ng/mL
- Kel [2, 14]: 0.255 h⁻¹ and 0.183 h⁻¹ and 0.261 h⁻¹
- MRTobs [2, 14]: 5.79 h and 7.62 h and 5.92 h
- t1/2 [2, 14]: 3.8 h
- time of appearance in the plasma post dosing ([2]; beagle dogs, oral, all formulations): ≤ 0.5 h
- Cmax ([2]; male, Beagle, dog, plasma, po, 2 mg/kg, 2 mg/kg oral, range across Formulation #1, #2 and powder in capsules, read-out: mean Cmax): 6.78 to 14.9 ng/mL
- AUC(0-inf) [2, 15]: 74 ng·h/mL
- Tmax [2, 15]: 4.7 h
- half-life [2, 15]: 5.6 h
